Measured values taken from patent publication US7592421B1, “HLA class II peptide mimics” (Health Research, Inc., priority 2003, dated 2009).
Entries after “also recorded” stand apart in the source; their conditions may differ.

How the values were obtained:
[1] = system: mAb HT214.F2.H6.4F4 binding to HLA class II antigens on LG2 cells; test: Inhibition of binding of mAb HT214.F2.H6.4F4 to HLA class II bearing LG2 cells; set-up: species or system human; details: FIG. 1A; negative control peptide 673.74
Experimental: (§1) Peptide mimics of HLA class II antigen can be isolated by panning phage display peptide libraries with anti-HLA class II antigen mAbs. Anti-HLA class II antigen mAbs can be used to isolate phage that display antibody reactive peptides. After phage panning, the binding ability of isolated phage colonies to anti-HLA class II antigen mAbs is tested with immunoscreening and further confirmed by enzyme-linked immunosorbent assay (ELISA). Anti-HLA class II antigen antibody reactive phage clone and the same phage without displaying peptides, can be utilized as a positive and a negative controls respectively in the immunoscreening and ELISA. In the positive phage clones, the DNA inserts that encode the antibody reactive peptides can be sequenced. Peptides can be synthesized based on the sequences of the DNA inserts. The synthesized peptides are tested in ELISA to determine their binding reactivity with corresponding anti-HLA class II antigen mAbs. The ability of synthetic peptides to inhibit the binding of anti-HLA class II antigen mAbs to HLA class II antigen can be tested in an inhibition assay with HLA class II antigen-positive cell lines. The synthetic peptides that inhibit or block the binding of anti-HLA class II antigen mAbs to HLA class II antigen can be tested as active immunotherapy candidates. […]

[2] = system: mAb TP117.6 binding to HLA class II antigens on LG2 cells; test: Inhibition of binding of mAb TP117.6 to HLA class II bearing LG2 cells; set-up: species or system human; details: FIG. 1D
Experimental: as §1

[3] = system: mAb TP25.99, which recognizes HLA class I antigens; test: Inhibition of binding of control mAb TP25.99 (specificity control); details: FIG. 1E
Experimental: This Example illustrates the ability of the peptide mimics to bind to anti-HLA class II mAbs. The synthetic peptides were tested by ELISA for their ability to bind to anti-HLA class II mAb H2-27.F5.2G4, HT214.F2.H6.4F4, LGII612.14 and TP117.6. JH1 and JHT1 were also tested for their ability to inhibit the binding of anti-HLA class II mAb H2-27.F5.2G4 (FIG. 1B), HT214.F2.H6.4F4 (FIG. 1A), LGII612.14 (FIG. 1C) and TP117.6 (FIG. 1D) to HLA class II bearing cells LGL2 cells. H2-27.F5.2G4, LGII-612.14 and HT214.F2.H6.4F4 are monoclonal antibodies (mAb) that recognize HLA class II antigens. TP25.99 is a monoclonal antibody (mAb) which recognizes HLA class I antigens and is used in FIG. 1E as a control. LG2 is a human lymphoid cell line which expresses HLA class II antigens on its cell surface. P763.74 is a High Molecular Weight-Melanoma Associated Antigen (HMW-MAA) peptide mimic isolated using the anti-HMW-MAA mAb 763.74 and is used in FIGS. 1A-1C as a control peptide. The peptides were considered to be mimics of HLA class II antigens if they could inhibit the binding of any of the four anti-HLA class II mAb (H2-27, F5.2G4, HT214.F2.H6.4F4, LGII612.14 and TP117.6) to HLA class II bearing cells.

[4] = system: anti-HLA class II mAb HT214.F2.H6.4F4; test: ELISA binding of synthetic peptide to mAb HT214.F2.H6.4F4; details: ELISA and inhibition assay
Experimental: as §1

HLA class II antigens [5] = test: Immunization of BALB/c mice, serum reactivity with HLA class II antigens; type: in vivo; details: peptide conjugated to KLH with Freund's adjuvant, sera day 35, FIG. 2
From the text: (§2) HLA-DR transgenic mice express HLA-DR molecules. The promoter that is used to drive DR expression in the transgenic mice is H2 Ea promoter (pDOI-5 expression vector). This vector directs the expression of cDNA to cells which normally display class II molecules. HLA-DR transgenic mice were utilized as a model to test whether HLA class II peptide mimics can break tolerance to self-antigen. HLA-DR transgenic mice were immunized with peptide JH1 and JHT1 conjugated to keyhole limpet hemocyanin (KLH) and mixed with complete Freund's adjuvant for priming and with incomplete Freund's adjuvant for boosting. […] These experiments utilized LG2 cells as described in Example 2 and MOLT-4 cells. […] It was used as a control. Sera used for testing reactivity with HLA class II antigens was harvested on day 35 from BABL/c mice for FIGS. 2 and 4 and on day 70 from HLA-DR transgenic mice in FIG. 3. For FIGS. 2, 3 and 4, preimmune serum was harvested one week before the first immunization and was used as a control. […] One intradermal injection with HLA class II bearing LG2 cells enhanced the immune response to HLA class II antigens.

HLA class II antigens [6] = test: Immunization of HLA-DR transgenic mice, breaking of self-tolerance; type: in vivo; details: peptide conjugated to KLH with Freund's adjuvant, sera day 70, FIG. 3
From the text: as §2

[7] = system: HLA class II antigens of LG2 lymphoid cells; test: Flow cytometry of immune sera with LG2 lymphoid cells; type: cell-based, human; details: sera of immunized BALB/c mice, day 35; FIG. 4A
From the text: as §2

MOLT-4 lymphoid cells = test: Flow cytometry of immune sera with control MOLT-4 lymphoid cells; type: cell-based, human; details: sera of immunized BALB/c mice, day 35; MOLT-4 does not express HLA class II; FIG. 4B
From the text: as §2

[8] = system: immunizing peptides; HLA class II; test: Antibody titers in sera of immunized mice; type: in vivo; details: peptide-KLH, Freund's adjuvant; FIGS. 2-4
From the text: as §2

[9] = Side effects in immunized mice; type: in vivo; details: peptide-KLH, Freund's adjuvant
From the text: as §2

[10] = system: mAb H2-27.F5.2G4 binding to HLA class II antigen on LG2 cells; test: Inhibition of binding of mAb H2-27.F5.2G4 to HLA class II bearing LG2 cells; set-up: species or system human; details: FIG. 1B; negative control peptide 673.74
Experimental: as §1

[11] = system: mAb LGII-612.14 binding to HLA class II antigens on LG2 cells; test: Inhibition of binding of mAb LGII-612.14 to HLA class II bearing LG2 cells; set-up: species or system human; details: FIG. 1C; negative control peptide 673.74
Experimental: as §1

[12] = system: anti-HLA class II mAb H2-27.F5.2G4; test: ELISA binding of synthetic peptide to mAb H2-27.F5.2G4; details: ELISA and inhibition assay
Experimental: as §1

[13] = system: anti-HLA class II mAb LGII-612.14; test: ELISA binding of synthetic peptide to mAb LGII-612.14; details: ELISA and inhibition assay
Experimental: as §1

Row | Sequence | inhibition of binding of mAb HT214.F2.H6.4F4 to HLA class II antigens on LG2 cells [1] | inhibition of binding of mAb TP117.6 to HLA class II antigens on LG2 cells [2] | inhibition of binding of mAb TP25.99 (anti-HLA class I, control) [3] | reaction with the combining site of mAb HT214.F2.H6.4F4 [4] | humoral immune response against HLA class II antigens (HLA class II antigens [5]) | breaking self-tolerance, humoral immune response against HLA class II antigens (HLA class II antigens [6]) | reactivity of immune sera with HLA class II antigens of LG2 lymphoid cells (flow cytometry) [7] | reactivity of immune sera with control MOLT-4 lymphoid cells (flow cytometry) (MOLT-4 lymphoid cells) | anti-HLA class II antibodies in sera of immunized mice [8] | antibodies to the immunizing peptides in sera of immunized mice [8] | side effects in immunized mice [9] | inhibition of binding of mAb H2-27.F5.2G4 to HLA class II antigen on LG2 cells [10] | inhibition of binding of mAb LGII-612.14 to HLA class II antigens on LG2 cells [11] | reaction with the combining site of mAb H2-27.F5.2G4 [12] | reaction with the combining site of mAb LGII-612.14 [13]
1 | KCPLDPKGLNCV (unknown synthesized peptide JHT1) [HLA class II peptide mimic isolated by panning with mAb HT214.F2.H6.4F4] | inhibits binding of mAb HT214.F2.H6.4F4 to HLA class II antigens to LG2 cells in a dose-dependent manner | can inhibit binding | do not inhibit binding | reacted with the combining sites | elicits a humoral immune response against HLA class II antigens; also recorded: also induced a humoral response against HLA class II antigens | can break self-tolerance and elicit a humoral immune response against HLA class II antigens; also recorded: can also break self-tolerance | reactivity | lack of reactivity | detected in the sera of immunized mice at lower titers | high-titer antibodies to the immunizing peptides were detected | No obvious side effects | – | – | – | –
2 | SCLRAGGWVCCK (unknown synthesized peptide JH1) [HLA class II peptide mimic isolated by panning phage display libraries with mAb H2-27.F5.2G4 and LGII-612.14] | – | can inhibit binding | do not inhibit binding | – | elicits a humoral immune response against HLA class II antigens; also recorded: induced a humoral response against HLA class II antigens | can break self-tolerance and elicit a humoral immune response against HLA class II antigens | reactivity | lack of reactivity | detected in the sera of immunized mice at lower titers | high-titer antibodies to the immunizing peptides were detected | No obvious side effects | inhibits binding of mAb H2-27.F5.2G4 to HLA class II antigen on LG2 cells in a dose-dependant manner | inhibits binding of mAb LGII-612.14 to HLA class II antigens on LG2 cells in a dose-dependent manner | reacted with the combining sites | reacted with the combining sites
